Data reported in PMC9295122, “Sialic Acid Derivatives Inhibit SiaT Transporters and Delay Bacterial Growth” (ACS Chemical Biology, 2022).

How the values were obtained:
S. aureus strain COL = assay: Bacterial growth assay in MM with Neu5Ac, S. aureus; assay type: cell-based, Staphylococcus aureus; conditions: MM + Neu5Ac 3.2 mM, compound 0.5 mM, P < 0.001
Experimental: To investigate the efficacy of compounds 3e and 3f in inhibiting the uptake of Neu5Ac, bacterial growth assays were performed on a uropathogenic P. mirabilis strain HI4320 and a clinical HA-MRSA isolate S. aureus strain COL. The goal was to verify that compounds 3e and 3f alter bacterial growth when grown on Neu5Ac as an additional carbon source. Growth alteration would indicate Neu5Ac uptake impairment, thus validating our approach.
We first addressed whether these bacteria were able to catabolize the inhibitors and potentially use them as a carbon source for growth. Each strain was grown in carbon-limited defined minimal media (MM), without any carbon source other than sodium citrate for P. mirabilis and casamino acids for S. aureus, and supplemented with 3e and 3f. […] With these promising results, bacterial growth assays were performed in MM supplemented with Neu5Ac at a concentration of 3.2 mM and with 0.5 mM of compounds 3e and 3f (Figure 6a,b). The lag phase duration was determined as the time for the initial population density to increase twofold (see the horizontal dashed lines in Figure 6a,b). […] In the case of P. mirabilis, compound 3e indicated a delay in growth (3 h, P = 0.06), while no effect was recorded for compound 3f. […]

[1] = Plasma-protein binding by RED, range over three species; assay type: in vitro ADME; conditions: pH 7.2, range over human, mouse, and rat, read-out: free fraction (plasma protein binding by RED)
Excerpt: Next, we investigated the physiochemical and absorption, distribution, metabolism, and excretion (ADME) properties of compounds 3a, 3e, and 3f (Tables S5 and S6). […] The logD at pH 7.4 was below 0 for all three compounds (<−0.5 for compounds 3a and 3e). […] Overall, these features represent promising starting points for further development of this class of molecules.
The assay was run in a deep well plate containing RED inserts with semipermeable dialysis membranes. The reaction was started by adding the compounds to a blank plasma in a 5 μM concentration. Opposite to the blank plasma was a compartment containing isotonic sodium–phosphate buffer (pH 7.2) separated from the plasma by the membrane. The plate was equilibrated in a water bath at 37 °C for 4 h. Samples from both the plasma and the buffer side were matrix compensated before protein precipitation. The samples were centrifuged, and the supernatants were diluted and analyzed by LC–MS/MS to determine the % unbound compound. Two incubations per compound per species.

Row | SMILES | delayed growth (lag phase) (S. aureus strain COL) [h] | fraction unbound at 4 h, 5 μM [1]
1 | CC(=O)NC1C(OCc2cc(Br)cc(Br)c2)CC(O)(C(=O)O)OC1C(O)C(O)CO (centres unmarked) [Compound 3f] | 9.4 | 0.21 to 0.27
2 | CC(=O)NC1C(OCc2ccccc2)CC(O)(C(=O)O)OC1C(O)C(O)CO (centres unmarked) [Compound 3a] | – | 0.63 to 0.85
3 | CC(=O)NC1C(OCc2cc(F)cc(F)c2)CC(O)(C(=O)O)OC1C(O)C(O)CO (centres unmarked) [Compound 3e] | 4.4 | 0.63 to 0.85
